Source: patent publication US8192962B2, “Processes for detecting toxic substances” (Daikin Industries, Ltd., priority 2001, dated 2012)

Test system: Mitochondria-located protein genes
Test: DNA chip mRNA expression in yeast, mitochondria-located protein genes (Table 2)
Format: cell-based, Saccharomyces cerevisiae S288C
Conditions: cells incubated two hours with the chemical substance
Method in brief: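 Ratios compare mRNA levels in stressed and control S. cerevisiae. Each toxicant was applied for two hours to log-phase cultures at 25° C. at a sub-lethal, growth-inhibiting level; fluorescent cDNA (Cy3- or Cy5-dUTP) was hybridized to a genome-wide yeast chip for over 12 h at 65° C.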

Question: For `S=C([S-])NCCNC(=S)[S-].[Zn+2]` [(11), zinc N,N′-ethylenebis(dithiocarbamate)], which “The level of expressed mRNA in the presence of chemical substance/The level of expressed mRNA in the absence of chemical substance” value (yeast gene YAL039C) is on record?
Answer: 1.1

Question: And the “The level of expressed mRNA in the presence of chemical substance/The level of expressed mRNA in the absence of chemical substance” value (yeast gene YBL022C)?
Answer: 1.1

Question: What about the “The level of expressed mRNA in the presence of chemical substance/The level of expressed mRNA in the absence of chemical substance” value (yeast gene YBL030C) of the same compound?
Answer: 1.1

Question: What about the “The level of expressed mRNA in the presence of chemical substance/The level of expressed mRNA in the absence of chemical substance” value (yeast gene YBL038W) of the same compound?
Answer: 0.7

Question: What about the “The level of expressed mRNA in the presence of chemical substance/The level of expressed mRNA in the absence of chemical substance” value (yeast gene YBL099W) of the same compound?
Answer: 2.1

Question: And the “The level of expressed mRNA in the presence of chemical substance/The level of expressed mRNA in the absence of chemical substance” value (yeast gene YBR003W)?
Answer: 1.3

Question: And the “The level of expressed mRNA in the presence of chemical substance/The level of expressed mRNA in the absence of chemical substance” value (yeast gene YBR044C)?
Answer: 1.1

Question: What about the “The level of expressed mRNA in the presence of chemical substance/The level of expressed mRNA in the absence of chemical substance” value (yeast gene YBR091C) of the same compound?
Answer: 0.7

Question: What about the “The level of expressed mRNA in the presence of chemical substance/The level of expressed mRNA in the absence of chemical substance” value (yeast gene YBR122C) of the same compound?
Answer: 1.2

Question: And the “The level of expressed mRNA in the presence of chemical substance/The level of expressed mRNA in the absence of chemical substance” value (yeast gene YBR185C)?
Answer: 1.2

Question: What about the “The level of expressed mRNA in the presence of chemical substance/The level of expressed mRNA in the absence of chemical substance” value (yeast gene YBR221C) of the same compound?
Answer: 1.2

Question: And the “The level of expressed mRNA in the presence of chemical substance/The level of expressed mRNA in the absence of chemical substance” value (yeast gene YBR251W)?
Answer: 1.5

Question: And the “The level of expressed mRNA in the presence of chemical substance/The level of expressed mRNA in the absence of chemical substance” value (yeast gene YBR282W)?
Answer: 0.9

Question: And the “The level of expressed mRNA in the presence of chemical substance/The level of expressed mRNA in the absence of chemical substance” value (yeast gene YCL057W)?
Answer: 1.6

Question: What about the “The level of expressed mRNA in the presence of chemical substance/The level of expressed mRNA in the absence of chemical substance” value (yeast gene YCR046C) of the same compound?
Answer: 1.5

Question: And the “The level of expressed mRNA in the presence of chemical substance/The level of expressed mRNA in the absence of chemical substance” value (yeast gene YCR083W)?
Answer: 1.8

Question: And the “The level of expressed mRNA in the presence of chemical substance/The level of expressed mRNA in the absence of chemical substance” value (yeast gene YDL067C)?
Answer: 1.4

Question: And the “The level of expressed mRNA in the presence of chemical substance/The level of expressed mRNA in the absence of chemical substance” value (yeast gene YDL181W)?
Answer: 0.8

Question: What about the “The level of expressed mRNA in the presence of chemical substance/The level of expressed mRNA in the absence of chemical substance” value (yeast gene YDL198C) of the same compound?
Answer: 2.5

Question: And the “The level of expressed mRNA in the presence of chemical substance/The level of expressed mRNA in the absence of chemical substance” value (yeast gene YDR079W)?
Answer: 1.3

Question: And the “The level of expressed mRNA in the presence of chemical substance/The level of expressed mRNA in the absence of chemical substance” value (yeast gene YDR178W)?
Answer: 2.0

Question: And the “The level of expressed mRNA in the presence of chemical substance/The level of expressed mRNA in the absence of chemical substance” value (yeast gene YDR231C)?
Answer: 1.3

Question: What about the “The level of expressed mRNA in the presence of chemical substance/The level of expressed mRNA in the absence of chemical substance” value (yeast gene YDR258C) of the same compound?
Answer: 1.7

Question: What about the “The level of expressed mRNA in the presence of chemical substance/The level of expressed mRNA in the absence of chemical substance” value (yeast gene YDR298C) of the same compound?
Answer: 1.2

Question: What about the “The level of expressed mRNA in the presence of chemical substance/The level of expressed mRNA in the absence of chemical substance” value (yeast gene YDR347W) of the same compound?
Answer: 0.8

Question: What about the “The level of expressed mRNA in the presence of chemical substance/The level of expressed mRNA in the absence of chemical substance” value (yeast gene YDR377W) of the same compound?
Answer: 1.4

Question: What about the “The level of expressed mRNA in the presence of chemical substance/The level of expressed mRNA in the absence of chemical substance” value (yeast gene YDR529C) of the same compound?
Answer: 0.8

Question: What about the “The level of expressed mRNA in the presence of chemical substance/The level of expressed mRNA in the absence of chemical substance” value (yeast gene YEL024W) of the same compound?
Answer: 0.9

Question: What about the “The level of expressed mRNA in the presence of chemical substance/The level of expressed mRNA in the absence of chemical substance” value (yeast gene YEL039C) of the same compound?
Answer: 1.7

Question: And the “The level of expressed mRNA in the presence of chemical substance/The level of expressed mRNA in the absence of chemical substance” value (yeast gene YER178W)?
Answer: 2.5

Question: What about the “The level of expressed mRNA in the presence of chemical substance/The level of expressed mRNA in the absence of chemical substance” value (yeast gene YFL016C) of the same compound?
Answer: 1.2

Question: And the “The level of expressed mRNA in the presence of chemical substance/The level of expressed mRNA in the absence of chemical substance” value (yeast gene YGL018C)?
Answer: 1.1

Question: What about the “The level of expressed mRNA in the presence of chemical substance/The level of expressed mRNA in the absence of chemical substance” value (yeast gene YGL187C) of the same compound?
Answer: 0.7

Question: And the “The level of expressed mRNA in the presence of chemical substance/The level of expressed mRNA in the absence of chemical substance” value (yeast gene YGL191W)?
Answer: 1.6

Question: And the “The level of expressed mRNA in the presence of chemical substance/The level of expressed mRNA in the absence of chemical substance” value (yeast gene YGR008C)?
Answer: 2.6

Question: What about the “The level of expressed mRNA in the presence of chemical substance/The level of expressed mRNA in the absence of chemical substance” value (yeast gene YGR028W) of the same compound?
Answer: 1.1

Question: What about the “The level of expressed mRNA in the presence of chemical substance/The level of expressed mRNA in the absence of chemical substance” value (yeast gene YGR062C) of the same compound?
Answer: 1.6

Question: What about the “The level of expressed mRNA in the presence of chemical substance/The level of expressed mRNA in the absence of chemical substance” value (yeast gene YGR076C) of the same compound?
Answer: 1.7

Question: What about the “The level of expressed mRNA in the presence of chemical substance/The level of expressed mRNA in the absence of chemical substance” value (yeast gene YGR082W) of the same compound?
Answer: 1.3

Question: And the “The level of expressed mRNA in the presence of chemical substance/The level of expressed mRNA in the absence of chemical substance” value (yeast gene YGR174C)?
Answer: 1.3

Question: And the “The level of expressed mRNA in the presence of chemical substance/The level of expressed mRNA in the absence of chemical substance” value (yeast gene YGR244C)?
Answer: 1.8

Question: What about the “The level of expressed mRNA in the presence of chemical substance/The level of expressed mRNA in the absence of chemical substance” value (yeast gene YHR008C) of the same compound?
Answer: 2.1

Question: What about the “The level of expressed mRNA in the presence of chemical substance/The level of expressed mRNA in the absence of chemical substance” value (yeast gene YIL155C) of the same compound?
Answer: 1.3

Question: And the “The level of expressed mRNA in the presence of chemical substance/The level of expressed mRNA in the absence of chemical substance” value (yeast gene YJL096W)?
Answer: 1.2

Question: What about the “The level of expressed mRNA in the presence of chemical substance/The level of expressed mRNA in the absence of chemical substance” value (yeast gene YJL102W) of the same compound?
Answer: 0.7

Question: And the “The level of expressed mRNA in the presence of chemical substance/The level of expressed mRNA in the absence of chemical substance” value (yeast gene YJL133W)?
Answer: 1.2

Question: What about the “The level of expressed mRNA in the presence of chemical substance/The level of expressed mRNA in the absence of chemical substance” value (yeast gene YJL166W) of the same compound?
Answer: 1.4

Question: What about the “The level of expressed mRNA in the presence of chemical substance/The level of expressed mRNA in the absence of chemical substance” value (yeast gene YJL180C) of the same compound?
Answer: 1.4

Question: And the “The level of expressed mRNA in the presence of chemical substance/The level of expressed mRNA in the absence of chemical substance” value (yeast gene YJR045C)?
Answer: 1.4

Question: And the “The level of expressed mRNA in the presence of chemical substance/The level of expressed mRNA in the absence of chemical substance” value (yeast gene YJR077C)?
Answer: 1.6
